Reference: patent US11091531B2, “Antigen-specific helper T-cell receptor genes” (International Institute of Cancer Immunology, Inc., priority 2012, dated 2021)
Peptide text beside a SMILES is read from it.

Test system: HLA-DPB1*05:01-positive TF-1 cells
Test: 51Cr releasing assay with target cells pretreated with granzyme-inhibitor
Assay type: cell-based, human
Details: target cells pretreated with 100 μM for 2 hours; p<0.05; FIG. 4F
Experimental: To confirm whether the cytotoxic activity of the WT1332-TCR-transduced CD4^+ T-cells was dependent on the granzyme B/perforin pathway, HLA-DPB1*05:01-positive TF-1 cells pretreated with 100 μM of a granzyme-inhibitor, Ac-IETD-Cho, were used as target cells. The HLA-DPB1*05:01-positive TF-1 cells were pretreated with 100 μM of Ac-IETD-Cho or DMSO (control) for 2 hours, then labeled with ^51Cr, and incubated with WT1332-TCR-transduced CD4^+ T-cells, and ^51Cr releasing assay was performed.

CC[C@H](C)[C@H](NC(C)=O)C(=O)N[C@@H](CCC(=O)O)C(=O)N[C@H](C(=O)N[C@H](C=O)CC(=O)O)[C@@H](C)O [Ac-IETD-Cho] (Ac-IETD-aldehyde)
cytotoxic activity of WT1332-TCR-transduced CD4+ T-cells on pretreated target cells compared with DMSO: markedly lower
